From the supplement of paper PMC10307832

Tests used:
Assay in all cases: relative viability (nuclei count vs DMSO), 5 days (fraction); higher = more cells survive
Vandetanib + Crizotinib = compound: COc1cc2/c(=N/c3ccc(Br)cc3F)nc[nH]c2cc1OCC1CCN(C)CC1 [Vandetanib] + C[C@@H](Oc1cc(-c2cnn(C3CCNCC3)c2)cnc1N)c1c(Cl)ccc(F)c1Cl [Crizotinib] (partner 1 µM)
Method in brief: (§1)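 One day after seeding in 1536-well plates, lung cancer cell lines were dosed by pin tool. Dosing was either single-drug or a fixed anchor-drug dose plus five library-drug doses (not always all listed) in √10 steps. After 5 days, nuclei were stained in one fix-and-stain step and counted on 4× images, and relative viability is the nuclei count of treated wells over that of vehicle wells, given as the median of duplicate plates.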

[1] = compound: C1=CC=C2C(=C1)N=C(S2)C(C#N)C3=NC(=NC=C3)NCCC4=CN=CC=C4 + Nc1ncn([C@H]2C[C@H](O)[C@@H](CO)O2)c(=O)n1 [Decitabine] (partner 2 µM)
Method in brief: as §1

Vandetanib + Lapatinib = compound: COc1cc2/c(=N/c3ccc(Br)cc3F)nc[nH]c2cc1OCC1CCN(C)CC1 [Vandetanib] + CS(=O)(=O)CCNCc1ccc(-c2ccc3ncnc(Nc4ccc(OCc5cccc(F)c5)c(Cl)c4)c3c2)o1 [Lapatinib] (partner 2 µM)
Method in brief: as §1

[2] = compound: C1=CC=C2C(=C1)N=C(S2)C(C#N)C3=NC(=NC=C3)NCCC4=CN=CC=C4 + Cc1nc(NC(=O)N2CCC[C@H]2C(N)=O)sc1-c1ccnc(C(C)(C)C(F)(F)F)c1 [Alpelisib] (partner 2 µM)
Method in brief: as §1

UMC-11 was tested, and the relative viability (Vandetanib + Crizotinib; first compound 0.02 µM) was 0.588, the relative viability (Vandetanib + Crizotinib; first compound 0.06325 µM) was 0.654 and the relative viability (Vandetanib + Crizotinib; first compound 0.2 µM) was 0.632. The relative viability (Vandetanib + Crizotinib; first compound 0.6325 µM) was 0.494, the relative viability (Vandetanib + Crizotinib; first compound 2 µM) was 0.61 and the relative viability ([1]; first compound 0.005 µM) was 0.546. It also gave a relative viability ([1]; first compound 0.01581 µM) of 0.65, a relative viability ([1]; first compound 0.05 µM) of 0.456 and a relative viability ([1]; first compound 0.1581 µM) of 0.589. For the same cell line, the relative viability ([1]; first compound 0.5 µM) was 0.59, the relative viability (Vandetanib + Lapatinib; first compound 0.02 µM) was 0.816 and the relative viability (Vandetanib + Lapatinib; first compound 0.06325 µM) was 0.961. For the same cell line, the relative viability (Vandetanib + Lapatinib; first compound 0.2 µM) was 0.664, the relative viability (Vandetanib + Lapatinib; first compound 0.6325 µM) was 0.892 and the relative viability (Vandetanib + Lapatinib; first compound 2 µM) was 1.01. It also gave a relative viability ([2]; first compound 0.005 µM) of 0.644, a relative viability ([2]; first compound 0.01581 µM) of 1.12 and a relative viability ([2]; first compound 0.05 µM) of 0.924. For the same cell line, the relative viability ([2]; first compound 0.1581 µM) was 1.11 and the relative viability ([2]; first compound 0.5 µM) was 0.78.
